According to PMC9119314 (Frontiers in Pharmacology, 2022):
Like-named read-outs stand apart in the source and are kept apart here.

Key:
P. falciparum K1 = test: In vitro antiplasmodial activity, P. falciparum K1 (lactate dehydrogenase assay); format: cell-based, Plasmodium falciparum; conditions: for IC50: Plasmodium falciparum, chloroquine-resistant strain K1, 48 h, mean ± SE, read-out: Activity against P. falciparum K1, IC50
Protocol: P. falciparum (K1 clone) was maintained in human erythrocytes prepared from the donated blood samples (blood groups unknown, Ethical Tissue, University of Bradford), suspended in the RPMI 1640 medium as previously described ([Wright et al., 2001]), except that serum was replaced with Albumax II, [5% (^w/v)]. […] Twofold serial dilutions were made in 96-well microtiter plates in duplicate, and infected erythrocytes were added to give a final volume of 100 µL with 2.5% hematocrit and 1% parasitemia. Chloroquine diphosphate was used as a positive control, and uninfected and infected erythrocytes without compounds were included in each test. The plates were placed into a modular incubator; gassed with 93% nitrogen, 3% oxygen, and 4% carbon dioxide; and incubated at 37°C for 48 h. The parasite growth was assessed by measuring lactate dehydrogenase activity as described by [Makler et al. (1993)]. The reagent used contained the following in each mL: acetylpyridine adenine dinucleotide (APAD), 0.74 mg; lithium lactate, 19.2 mg; diaphorase, 0.1 mg; Triton X-100, 2 μL; nitroblue tetrazolium, 1 mg; and phenazine ethosulphate, 0.5 mg. Fifty microliter of this reagent was added to each well and mixed; plates were incubated for 15 min at 37°C. The optical densities were read at 550 nm using an Azure 96-well microplate reader (Azure Biosystems Inc.), and % inhibition of growth was calculated by comparison with the control values. IC50 values were determined using linear regression analysis (Microsoft Excel). A minimum of three separate determinations was carried out for each compound.

P. falciparum 3D7 = test: In vitro antiplasmodial activity, P. falciparum 3D7 (SYBR Green I); format: cell-based; conditions: Plasmodium falciparum; chloroquine-sensitive strain 3D7, 48 h; read-out: Activity against P. falciparum 3D7, IC50
Protocol: (§1) P. falciparum (3D7 clone) and P. knowlesi (A1-H.1 clone) were maintained in culture in RPMI 1640 supplemented with 25 mM HEPES, 25 mM NaHCO3, 10 mM D-glucose, 2 mM L-glutamine, 50 mg/L hypoxanthine, 25 mg/L gentamicin sulfate, 5 g/L Albumax II, and 10% (v/v) equine serum (Thermo Fisher Scientific, 26-050-088). The P. falciparum (3D7) and P. knowlesi (A1-H.1) parasites were grown in human A^+ red blood cells (National Health Blood and Transplant, United Kingdom). The parasites were incubated in sealed flasks at 37°C under a culture gas mixture of 96% N2, 3% CO2, and 1% O2. ([van Schalkwyk et al., 2019]). The compounds were initially dissolved in DMSO prior to diluting in RPMI. All experiments were initiated using unsynchronized parasites with both the parasitemia and hematocrit set to 1%. Drug susceptibility assays were set up in 96-well, flat-bottom microplates in a final volume of 200 μL, as described previously ([van Schalkwyk et al., 2017]). The controls were included for the background fluorescence (0% viability; parasites exposed to a supralethal 10 μM chloroquine concentration) and 100% growth (parasites in drug-free wells). The plates were incubated for one complete life cycle (27 h for P. knowlesi or 48 h for P. falciparum in vitro) at 37°C in a modular incubation chamber (Billups-Rothenburg Inc.) under the culture gas. Upon termination of the assay, the plates were stored at −20°C overnight. The SYBR Green I fluorescent method was used to measure parasite survival ([Bennett et al., 2004]; [Smilkstein et al., 2004]). After the microplates were thawed, 100 μL from each well was transferred into a duplicate plate. To this was added 100 μL of SYBR green solution [SYBR Green I (Thermo Fisher Scientific, S7563), diluted 1:5000 in a lysis buffer made of 20 mM Tris, 5 mM EDTA, 0.008% (w/v) saponin, 0.08% (v/v) Triton X-100, pH 7.5]. The plates were stored in the dark for 1 h before fluorescence was read at a 490 nm excitation wavelength and a 520 nm emission wavelength on a Spectramax M3 microplate reader (Molecular Devices) ([van Schalkwyk et al., 2017]). The background fluorescence (wells with parasites at 0% viability) was subtracted from all drug assay wells, and the parasite proliferation was determined as a percentage of the fluorescence in the drug-free control wells.

P. knowlesi A1-H.1 = test: In vitro antiplasmodial activity, P. knowlesi A1-H.1 (SYBR Green I); format: cell-based, Plasmodium knowlesi; conditions: 27 h
Protocol: as §1

P. berghei sporozoites = test: P. berghei liver-stage assay (sporozoites in Hep G2-A16-CD81 cells, luciferase); format: cell-based, Plasmodium berghei; conditions: for IC50: Plasmodium berghei, HepG2-A16-CD81, sporozoites in Hep G2-A16-CD81 cells, 48 h post infection, ± SE, read-out: Activity against the P. berghei liver stage, IC50
Protocol: Briefly, 3000 Hep G2-A16-CD81 cells/well were seeded in 1536-well plates (Greiner Bio). 50 nL of the test and control compound diluted in DMSO was added and incubated for 24 h. […] The plates were centrifuged for 5 min at 330 × g and incubated at 37°C. Forty-eight hours post infection, 2 μL of luciferin reagent (Promega BrightGlo) was added to each well, and the luciferase activity was detected using a Perkin Elmer Envision plate reader. […] To counter-screen for cellular toxicity, Hep G2-A16-CD81 cells were seeded as above for the sporozoite liver-stage assay but in the absence of sporozoites. Toxicity measurements were performed by adding Promega CellTiterGlo® (2 μL), followed by luminescence measurements. Curve fitting was done as described above using puromycin (25 μM) as a positive control and DMSO as negative control wells.

[1] = In vitro activity against T. brucei bloodstream forms (resazurin); format: cell-based, Trypanosoma brucei; conditions: human; SI compared with Hep G cells (Table 1); read-out: Selectivity index (SI), T. brucei compared with cytotoxicity to Hep G cells (converted)
Protocol: (§2) Bloodstream form T. brucei (strain 427, derivative 221) was maintained in modified Iscove’s medium, as described previously ([Taylor et al., 2013]). […] The parasites were diluted to 1 × 10^4 ml^−1, the compound was added at a range of concentrations, and the plates were incubated at 37°C in 5% CO2 for 48 h. Resazurin was then added to each well, and the plates were incubated for a further 16 h. Fluorescence intensities were determined using a BMG FLUOstar Omega plate reader (excitation 545 nm, emission 590 nm), and data were analyzed using Graph Pad Prism 9.0 software. […]

[2] = tested on: T. brucei bloodstream forms (strain 427, derivative 221); test: as above; format: cell-based, Trypanosoma brucei; conditions: Trypanosoma brucei, bloodstream forms, hydrochloride salts except 6 (citrate), ± SE; for IC50: 64 h, 48 h + 16 h resazurin
Protocol: as §2

[3] = Plasmodium knowlesi, read-out: Activity against P. knowlesi A1-H.1, IC50, 27 h, ± SD

Structure (SMILES) | IC50 (P. falciparum K1) [nM] | Selectivity index (SI), P. falciparum K1 with respect to Hep G cells (P. falciparum K1) | IC50 (P. falciparum 3D7) [nM] | IC50 (P. knowlesi A1-H.1; [3]) [nM] | IC50 (P. berghei sporozoites) [µM] | Selectivity index (SI), P. berghei liver stage with respect to Hep G cells (P. berghei sporozoites) | selectivity ratio at 48 h [1] | IC50 [2] [nM] | IC90 [2] [nM] | IC50 (P. knowlesi A1-H.1; read-out: Activity against P. knowlesi A1-H.1, IC50, ± SD) [nM]
C[n+]1c2ccccc2cc2[n-]c3c(Br)cc(Br)cc3c21 [Compound 4, 7,9-Dibromocryptolepine] | 440 ± 90 | 15.4 | 760 ± 60 | 1120 ± 450 | 5.82 ± 0.26 | 1.17 | 240 | 28.3 ± 0.5 | 40.3 ± 6.1 | –
C[n+]1c2ccccc2cc2[n-]c3c(I)cc(I)cc3c21 [Compound 6, 7,9-diiodocryptolepine] | 250 ± 40 | 113 | 660 ± 60 | 1040 ± 220 | 6.13 ± 0.62 | 4.6 | 478 | 59 ± 13 | 114 ± 11 | –
C[n+]1c2ccccc2cc2[n-]c3ccc(I)cc3c21 [Compound 5, 7-iodocryptolepine] | 160 ± 30 | 41.9 | 92 ± 20 | 110 | 14.6 ± 0.42 | 0.46 | 82.4 | 81.3 ± 2.5 | 113 ± 11 | 104 ± 40
